In US20200306295A1, “METHOD AND DEVICE FOR ANNIHILATION OF Staphylococcus aureus” (priority 2017, published 2020):
Converted amounts (≈) assume the structure as drawn. “Also recorded” adds a separate entry of the source. Read-outs that look alike come from different tables or passages of the source.

Legend:
[1] = system: MRSA NRS384 (MRSA USA 300); experiment: MIC by standard broth-dilution method; format: cell-based, S. aureus
Excerpt: For each measurement, three independent replicates were applied.

[2] = system: stationary-phase MRSA; experiment: Time-killing assay in PBS with or without pulsed laser (CFU enumeration); format: cell-based, S. aureus; conditions: for synergy of laser treatment with antibiotic against MRSA: 5 min laser plus 10 MIC antibiotic (FIG. 32)
Experimental: To quantify viable bacterial cells, CFU experiments were performed. 100 μl of sample analyte was transferred into a 96-well plate and then three or four ten-fold serial dilution achieved by transferring 20 μl bacterial culture into 180 μl 1×PBS in the next dilution row. After serial dilution, an aliquot (4 μl) from each well was spotted onto sterile TSA plates. After incubating the plates overnight (˜18 hours) at 37° C., the colonies were enumerated, and cell number was calculated in CFU/ml. For each CFU enumeration experiment, three independent replicates were applied.
Stationary-phase MRSA was prepared, washed and resuspended in 1×PBS at two-times of its original concentration. […] After laser treatment, the droplets were resuspended into 200 μl of 1×PBS (1:40 dilution) supplemented with antibiotics at different concentrations in a mini centrifuge tube (89166-278, VWR international). For example, daptomycin was added into MRSA solution after laser treatment at desired concentration of 0×MIC, 5×MIC, 10×MIC, 30×MIC, or 100×MIC supplemented with 50 μg/ml CaCl2). Corresponding groups without laser treatment were also conducted for comparison. These tubes were incubated within an orbital incubator (37° C., 200 rpm) for different incubation time. At each specific time point, 40 μl of aliquot from each group was transferred to a 96-well plate for follow-up CFU enumerating assay. In the case of tobramycin, additional antibiotic washing by 1×PBS was performed before the CFU experiment to avoid antibiotic interference. For time-killing assay in fresh human whole blood, similar protocol was followed as above, except that 1×PBS was replaced by fresh human whole blood and the initial stationary-phase MRSA solution was diluted by ten times with a concentration of ˜10^7 CFU/ml.

[3] = system: MRSA; experiment: microbe, parasite or virus in culture; format: cell-based, S. aureus; conditions: for resistance development with laser treatment: 48-day serial passage, sub-MIC antibiotic with 10 min laser; for MIC: Staphylococcus aureus, MRSA
Experimental: To understand whether laser treatment could cause genotypic or phenotypic change in MRSA, and whether STX photolysis could reduce the resistance development for conventional antibiotics, a serial passage study for each treatment scenario was conducted. The initial generation (Day 1) used in this study was stationary-phase MRSA. The sample was prepared, washed and resuspended in 1×PBS at its original concentration. An aliquot (5 μl) of the MRSA suspension was transferred onto a glass cover slide as a droplet of ˜5 mm in diameter with or without 10 min laser treatment (1 cm diameter illumination area, 120 mW). The droplets were then collected and resuspended into 5 ml of TSB medium (1:1000 dilution) with an estimated cell concentration of 10^5 CFU/ml. To study resistance development or selection induced by laser treatment alone, three groups were included: a group without laser treatment (SPO), a group with laser treatment (SPL1), and another independent group with laser treatment as a duplicate (SPL2). To study resistance development induced by antibiotic treatment alone and laser plus antibiotic treatment, three groups were included for each antibiotic: antibiotic alone-treated group (SPA0), laser plus antibiotic-treated group (SPLA1), and another laser plus antibiotic-treated group as another independent serial passage (SPLA2). For SPO, SPL1, and SPL2, 200 μl of bacterial suspension was directly transferred to each well of a 96-well plate, with three replicates conducted for each group. For SPA0, SPLA1, and SPLA2, 200 μl of bacterial suspension was transferred into the first dilution row of a 96-well plate with supplemented antibiotics at a desired starting concentration, whereas 100 μl of bacterial suspension was transferred to the rest dilution rows. […] Three replicates were applied for each group. These well plates were incubated in a shaker at 37° C. and 200 rpm for 18 hours followed by OD600 measurement by a plate reader. After MICs recording for each group, the well plates were continuously incubated in the shaker for 3 days in total. On Day 4, 200 μl of bacterial sample from each group was collected, washed, and resuspended in 1×PBS at its original concentration used as new inoculum for the next passage following the same protocol as described above. Samples for SPA0, SPLA1, and SPLA2 groups were collected from wells supplemented with sub-MIC antibiotic. Samples for SPO, SPL1, and SPL2 groups were also collected from the well plates. […] Serial passage for all groups were performed for […] with 16 generations in total. Raman spectroscopy was then applied to monitor STX expression level in groups of interest after the entire serial passage experiment. The protocol is detailed as below: 100 μl of ˜400 μl stored bacterial culture was collected, spun down with the supernatant being removed, then resuspended into 5 μl 1×PBS as high-concentration bacterial solution (20 times concentrated). An aliquot (1 μl) was transferred and then sandwiched between two glass cover slides for STX quantification by resonance Raman spectroscopy.

[4] = system: stationary-phase MRSA; experiment: Gentamicin-Texas red intracellular uptake assay; format: cell-based, S. aureus; conditions: gentamicin conjugated with Texas red, confocal fluorescence
Experimental: To study laser-mediated intracellular uptake of gentamicin (a representative of aminoglycoside), gentamicin was conjugated with a fluorescent dye, Texas-red, to form gentamicin-Texas red. Briefly, 10 mg of gentamicin was dissolved into 1 ml of 0.1 M sodium bicarbonate buffer (58761-500ML, Sigma Aldrich). 10 mg/ml of Texas red-X succinimidyl ester (T6134, Thermo Fisher Scientific) was added to the gentamicin solution slowly drop by drop. Then the mixed solution was stirred at room temperature for 1 hour. Gentamicin-Texas red was purified through sufficient dialysis against 0.1 M sodium bicarbonate buffer in a dialysis sack (Slide-A-Lyzer G2 Dialysis Cassettes, 2K MWCo, 15 mL, 87719, Thermao Fisher Scientific), and harvested through lyophilization (Labconco). […] After treatment, bacterial droplet was collected into 985 μl of sterile 1×PBS, and then add 10 μl of 1 mg/ml Gentamicin-Texas red. Mixed solution was incubated at 37° C. for 30 min with a shaking speed of 200 rpm. After incubation, MRSA pellets were harvested through washing with sterile 1×PBS twice and then fixed with 10% formalin. […] Quantitative analysis of fluorescence emission intensity from individual MRSA cells was conducted and allocated among groups with different laser treatment time.

[5] = system: stationary-phase MRSA; format: cell-based, S. aureus; conditions: for fold reduction of lowest concentration completely inhibiting MRSA growth within 18 hours, with laser treatment: 16 min laser stated for tetracycline, 2-fold or larger is synergy (FICI)
Experimental: To monitor the response of bacteria to laser treatment alone, antibiotic treatment alone, or their combinations, bacterial growth was continuously monitored overnight (18 hours with an interval of 30 min at 37° C.) by measuring optical density at 600 nm (OD600). Depending on the specific assay applied, the bacterial cells were suspended in 100 or 200 μl TSB medium under different treatment schemes (antibiotic alone, laser treatment alone, antibiotic plus laser treatment) with a final concentration of ˜10^5 CFU/ml. Bacterial growth was defined as OD600≥0.1.
Stationary-phase bacterial cells was washed and resuspended in 1×PBS at its original concentration. […] The treated droplet was collected and resuspended into 5 ml TSB (1:1000 dilution) for each group. Corresponding groups without laser treatment were also conducted for comparison. The bacterial suspensions were transferred to a 96-well plate with antibiotics supplemented into with the first row of the 96-well plate for eight two-fold serial dilution starting at a desired antibiotic concentration (e.g. ofloxacin: 2 μg/ml). After serial dilution, bacterial growth within the same well plate was monitored by a plate reader for 18 hours (OD600, 37° C.). The checkerboard assay was used for groups with laser treatment alone or laser plus antibiotic treatment. Two independent experiments of checkerboard assay were performed for each antibiotic with or without laser treatment. Based on the readout of OD600, a heat map was created to evaluate the antibiotic potentiation or synergistic effect enabled by STX photolysis.
Based on the checkerboard results, the fractional inhibitory concentration index (FICI), a synergy evaluation method between two antibiotics, was calculated as below: FICI=MIC of antibiotic A in combination/MIC of antibiotic A alone+MIC of antibiotic B in combination/MIC of antibiotic B alone. The interaction of the two antibiotics was defined as below: synergy if FICI≤0.5, no interaction if 0.5<FICI≤4, antagonism if FICI>4^46. […] Considering this reason, the synergy calculation was simplified as below: FICI=MIC of antibiotic A in combination with laser treatment/MIC of antibiotic A alone with synergy defined by FICI≤0.5.

[6] = system: STX in MRSA
[7] = read-out: MIC after 48-day serial passage, sub-MIC antibiotic alone

Compound: gentamicin
- MIC ([1]; MRSA NRS384 (MRSA USA 300), N = 3): 8 µg/mL
- synergy of laser treatment with antibiotic against MRSA [2]: synergy; also recorded: very obvious synergy
- MRSA reduction ([2]; pulsed laser treatment combined with antibiotic at 10 MIC (FIG. 32)): more than 2 log
- resistance development with laser treatment [3]: Delayed resistance development
- intracellular uptake with laser treatment vs untreated [4]: significantly more

Compound: CC(=O)NC[C@H]1CN(c2ccc(N3CCOCC3)c(F)c2)C(=O)O1 [linezolid]
- fold reduction of lowest concentration completely inhibiting MRSA growth within 18 hours, with laser treatment [5]: 8 fold
- resistance development with laser treatment [3]: resistance inhibition

Compound: O=C(O)c1cn(C2CC2)c2cc(N3CCNCC3)c(F)cc2c1=O [ciprofloxacin]
- synergy of laser treatment with antibiotic against MRSA [2]: synergy; also recorded: very obvious synergy
- resistance development with laser treatment [3]: no resistance
- MIC [3, 7]: 128 µg/mL (≈ 386 µM)
- MIC ([3]; read-out: MIC over/after 48-day serial passage, sub-MIC antibiotic plus 10 min laser treatment): ≤ 2 µg/mL

Compound: ramoplanin
- resistance development with laser treatment [3]: decreased resistance development is not shown

Compound: CN(C/C=C/c1ccccc1)Cc1cccc2ccccc12 [naftifine]
- second order bleaching constant τ2 ([6]; naftifine-treated MRSA, τ1=∞, wild-type MRSA 0.16±0.01 s): 0.39 ± 0.07 s
- τ2 of naftifine-treated MRSA relative to wild-type MRSA ([6]; times longer than wild-type MRSA): 2.5 times

Compound: CC1COc2c(N3CCN(C)CC3)c(F)cc3c(=O)c(C(=O)O)cn1c23 (stereo not drawn) [Ofloxacin, ofloxacin]
- MIC ([1]; Staphylococcus aureus): 0.5 µg/mL (≈ 1.38 µM)
- fold reduction of lowest concentration completely inhibiting MRSA growth within 18 hours, with laser treatment [5]: 2 fold
- MIC [3, 7]: 128 µg/mL (≈ 354 µM)

Compound: NC[C@H]1O[C@H](O[C@H]2[C@H](O)[C@@H](O[C@H]3O[C@H](CO)[C@@H](O)[C@H](N)[C@H]3O)[C@H](N)C[C@@H]2N)[C@H](N)C[C@@H]1O [tobramycin]
- resistance development with laser treatment [3]: resistance inhibition

Compound: Cc1onc(-c2ccccc2)c1C(=O)N[C@@H]1C(=O)N2[C@@H]1SC(C)(C)[C@@H]2C(=O)O [Oxacillin, oxacillin]
- MIC ([1]; Staphylococcus aureus, MRSA NRS384 (MRSA USA 300), N = 3, read-out: MIC): 8 µg/mL (≈ 19.9 µM)
- synergy of laser treatment with antibiotic against MRSA [2]: synergy; also recorded: very obvious synergy
- antibiotic concentration re-sensitized by laser treatment ([5]; laser treatment plus oxacillin): 1 µg/mL

Compound: CC[C@H]1OC(=O)[C@H](C)[C@@H](O[C@H]2C[C@@](C)(OC)[C@@H](O)[C@H](C)O2)[C@H](C)[C@@H](O[C@@H]2O[C@H](C)C[C@H](N(C)C)[C@H]2O)[C@](C)(O)C[C@@H](C)C(=O)[C@H](C)[C@@H](O)[C@]1(C)O [Erythromycin]
- MIC ([1]; Staphylococcus aureus): 64 µg/mL (≈ 87.2 µM)

Compound: CO/N=C(\C(=O)N[C@@H]1C(=O)N2C(C(=O)O)=C(COC(C)=O)CS[C@H]12)c1csc(N)n1 [cefotaxime]
- synergy of laser treatment with antibiotic against MRSA [2]: very obvious synergy
- synergy of laser treatment with antibiotic against MRSA ([2]; listed as cetotaxine): synergy
